# Key:
# Assay type in all cases: functional
# Streptococcus pyogenes [1] = experiment: Antimicrobial activity against Streptococcus pyogenes ATCC 176 after 24 hr by serial microdilution method; conditions: ATCC 176, 24 h
# Bacillus subtilis [2] = experiment: Antimicrobial activity against Bacillus subtilis ATCC 6633 after 24 hr by serial microdilution method; conditions: ATCC 6633, 24 h
# Proteus vulgaris [3] = experiment: Antimicrobial activity against Proteus vulgaris KUEN 1329 after 24 hr by serial microdilution method; conditions: KUEN 1329, 24 h
# Salmonella enteritidis [4] = experiment: Antimicrobial activity against Salmonella enterica subsp. enterica serovar Enteritidis ATCC 13076 at 105 ug/disk after 24 hr by disk diffusion method; conditions: ATCC 13076, 24 h, read-out: IZ
# Candida albicans [5] = experiment: Antimicrobial activity against Candida albicans ATCC 1213 by serial microdilution method
# Pseudomonas aeruginosa [6] = experiment: Antimicrobial activity against Pseudomonas aeruginosa ATCC 9027 after 24 hr by serial microdilution method; conditions: ATCC 9027, 24 h
# Staphylococcus aureus [7] = experiment: Antimicrobial activity against Staphylococcus aureus ATCC 29213 at 105 ug/disc after 24 hr by disk diffusion method; conditions: ATCC 29213, 24 h, read-out: IZ
# Candida albicans [8] = experiment: Antimicrobial activity against Candida albicans ATCC 1213 at 105 ug/disk after 48 hr by disk diffusion method; conditions: ATCC 1213, 48 h, read-out: IZ
# Pseudomonas aeruginosa [9] = experiment: Antimicrobial activity against Pseudomonas aeruginosa ATCC 9027 at 105 ug/disk after 24 hr by disk diffusion method; conditions: ATCC 9027, 24 h, read-out: IZ
# Escherichia coli [10] = experiment: Antimicrobial activity against Escherichia coli 111 after 24 hr by serial microdilution method; conditions: Escherichia coli, 111, 24 h
# Staphylococcus aureus [11] = experiment: Antimicrobial activity against Staphylococcus aureus ATCC 29213 after 24 hr by serial microdilution method; conditions: ATCC 29213, 24 h
# Bacillus subtilis [12] = experiment: Antimicrobial activity against Bacillus subtilis ATCC 6633 at 105 ug/disk after 24 hr by disk diffusion method; conditions: ATCC 6633, 24 h, read-out: IZ
# Pseudomonas aeruginosa [13] = experiment: Antimicrobial activity against Pseudomonas aeruginosa ATCC 27859 after 24 hr by serial microdilution method; conditions: ATCC 27859, 24 h
# Cyberlindnera jadinii [14] = experiment: Antimicrobial activity against Cyberlindnera jadinii KUEN 1031 at 105 ug/disc after 48 hr by disk diffusion method; conditions: Williopsis jadinii, KUEN 1031, 48 h; read-out: IZ
# Cyberlindnera jadinii [15] = experiment: Antimicrobial activity against Cyberlindnera jadinii KUEN 1031 serial microdilution method; conditions: Williopsis jadinii
# Salmonella enteritidis [16] = experiment: Antimicrobial activity against Salmonella enterica subsp. enterica serovar Enteritidis ATCC 13076 after 24 hr by serial microdilution method; conditions: ATCC 13076, 24 h
# Proteus vulgaris [17] = experiment: Antimicrobial activity against Proteus vulgaris KUEN 1329 at 105 ug/disk after 24 hr by disk diffusion method; conditions: KUEN 1329, 24 h, read-out: IZ
# Bacillus cereus [18] = experiment: Antimicrobial activity against Bacillus cereus DSM 4312 at 105 ug/disk after 24 hr by disk diffusion method; conditions: DSM 4312, 24 h, read-out: IZ
# Bacillus cereus [19] = experiment: Antimicrobial activity against Bacillus cereus DSM 4312 after 24 hr by serial microdilution method; conditions: DSM 4312, 24 h
# Pseudomonas aeruginosa [20] = experiment: Antimicrobial activity against Pseudomonas aeruginosa ATCC 27859 at 105 ug/disk after 24 hr by disk diffusion method; conditions: ATCC 27859, 24 h, read-out: IZ
# Escherichia coli [21] = experiment: Antimicrobial activity against Escherichia coli 111 at 105 ug/disk after 24 hr by disk diffusion method; conditions: Escherichia coli, 111, 24 h; read-out: IZ
# Streptococcus pyogenes [22] = experiment: Antimicrobial activity against Streptococcus pyogenes ATCC 176 at 105 ug/disc after 24 hr by disc diffusion method; conditions: ATCC 176, 24 h, read-out: IZ
SMILES,MIC (Streptococcus pyogenes [1]),MIC (Bacillus subtilis [2]),MIC (Proteus vulgaris [3]),zone of inhibition at 105 µg/disc (Salmonella enteritidis [4]),MIC (Candida albicans [5]),MIC (Pseudomonas aeruginosa [6]),zone of inhibition at 105 µg/disc (Candida albicans [8]),zone of inhibition at 105 µg/disc (Pseudomonas aeruginosa [9]),MIC (Escherichia coli [10]),MIC (Staphylococcus aureus [11]),zone of inhibition at 105 µg/disc (Bacillus subtilis [12]),MIC (Pseudomonas aeruginosa [13]),zone of inhibition at 105 µg/disc (Cyberlindnera jadinii [14]),MIC (Cyberlindnera jadinii [15]),MIC (Salmonella enteritidis [16]),zone of inhibition at 105 µg/disc (Proteus vulgaris [17]),zone of inhibition at 105 µg/disc (Bacillus cereus [18]),MIC (Bacillus cereus [19]),zone of inhibition at 105 µg/disc (Escherichia coli [21]),further results
O=C(CC(Sc1ccccc1)c1ccco1)c1ccccc1Cl (configuration not stated),15.6 µg/mL,31.2 µg/mL,31.2 µg/mL,18 mm,15.6 µg/mL,31.2 µg/mL,16 mm,14 mm,> 125 µg/mL,7.81 µg/mL,15 mm,125 µg/mL,13 mm,125 µg/mL,15.6 µg/mL,16 mm,11 mm,31.2 µg/mL,–,zone of inhibition at 105 µg/disc (Staphylococcus aureus [7]): 18 mm; zone of inhibition at 105 µg/disc (Pseudomonas aeruginosa [20]): 14 mm
COc1cccc(C(=O)CC(Sc2ccccc2)c2ccco2)c1 (configuration not stated),7.81 µg/mL,62.5 µg/mL,31.2 µg/mL,17 mm,15.6 µg/mL,> 125 µg/mL,17 mm,–,31.2 µg/mL,> 125 µg/mL,12 mm,125 µg/mL,13 mm,15.6 µg/mL,62.5 µg/mL,14 mm,–,62.5 µg/mL,14 mm,–
O=C(CC(Sc1ccccc1)c1ccco1)c1ccc(Cl)cc1 (configuration not stated),125 µg/mL,> 125 µg/mL,7.81 µg/mL,17 mm,62.5 µg/mL,> 125 µg/mL,14 mm,15 mm,62.5 µg/mL,> 125 µg/mL,–,> 125 µg/mL,14 mm,62.5 µg/mL,62.5 µg/mL,14 mm,10 mm,31.2 µg/mL,10 mm,zone of inhibition at 105 µg/disc (Streptococcus pyogenes [22]): 13 mm
O=C(CC(Sc1ccccc1)c1ccco1)c1ccc(O)cc1 (configuration not stated),7.81 µg/mL,31.2 µg/mL,7.81 µg/mL,17 mm,15.6 µg/mL,62.5 µg/mL,20 mm,14 mm,62.5 µg/mL,31.2 µg/mL,–,62.5 µg/mL,13 mm,62.5 µg/mL,62.5 µg/mL,17 mm,–,31.2 µg/mL,10 mm,–
O=C(CC(Sc1ccccc1)c1ccco1)c1ccc(Br)cc1 (configuration not stated),7.81 µg/mL,31.2 µg/mL,15.6 µg/mL,17 mm,15.6 µg/mL,31.2 µg/mL,11 mm,15 mm,> 125 µg/mL,> 125 µg/mL,–,31.2 µg/mL,13 mm,125 µg/mL,62.5 µg/mL,15 mm,–,62.5 µg/mL,–,–
COc1ccccc1C(=O)CC(Sc1ccccc1)c1ccco1 (configuration not stated),31.2 µg/mL,31.2 µg/mL,31.2 µg/mL,18 mm,125 µg/mL,31.2 µg/mL,17 mm,15 mm,62.5 µg/mL,7.81 µg/mL,14 mm,62.5 µg/mL,14 mm,125 µg/mL,15.6 µg/mL,15 mm,10 mm,31.2 µg/mL,13 mm,zone of inhibition at 105 µg/disc (Staphylococcus aureus [7]): 17 mm; zone of inhibition at 105 µg/disc (Streptococcus pyogenes [22]): 15 mm; zone of inhibition at 105 µg/disc (Pseudomonas aeruginosa [20]): 15 mm
CC1(C)S[C@@H]2[C@H](NC(=O)[C@H](N)c3ccccc3)C(=O)N2[C@H]1C(=O)O [AMPICILLIN],3.9 µg/mL,> 125 µg/mL,15.6 µg/mL,–,> 125 µg/mL,7.81 µg/mL,–,–,> 125 µg/mL,> 125 µg/mL,–,> 125 µg/mL,–,7.81 µg/mL,> 125 µg/mL,–,–,> 125 µg/mL,–,–
